In patent US20240207414A1, “DISULFIDE-BASED PRODRUG COMPOUND” (Ludwig-Maximilians-Universitat Munchen, priority 2021, published 2024):

What was measured:
[1] = molecular target: T1, thioredoxin reductase 1 (TrxR1) (Homo sapiens, UniProt Q16881); experiment: Enzymatic activation assay: NADPH/TrxR1 without Trx; format: biochemical; conditions: NADPH/TrxR1, no Trx added, 37° C., 6 h
T1 sequence (Q16881 1-499 isoform Q16881-5): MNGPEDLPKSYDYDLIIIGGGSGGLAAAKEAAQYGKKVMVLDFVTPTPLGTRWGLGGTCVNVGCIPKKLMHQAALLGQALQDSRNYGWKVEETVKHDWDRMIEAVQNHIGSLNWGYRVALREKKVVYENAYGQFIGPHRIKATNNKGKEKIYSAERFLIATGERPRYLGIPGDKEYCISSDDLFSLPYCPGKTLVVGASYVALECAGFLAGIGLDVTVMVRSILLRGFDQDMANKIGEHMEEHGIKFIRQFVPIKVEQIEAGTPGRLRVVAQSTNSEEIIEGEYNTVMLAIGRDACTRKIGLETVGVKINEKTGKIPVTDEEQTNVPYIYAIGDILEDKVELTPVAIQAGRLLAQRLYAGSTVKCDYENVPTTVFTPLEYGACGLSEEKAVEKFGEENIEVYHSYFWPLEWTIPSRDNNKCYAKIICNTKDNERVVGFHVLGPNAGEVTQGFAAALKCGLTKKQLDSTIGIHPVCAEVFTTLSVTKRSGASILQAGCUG
From the text: (§1) This assay (see FIG. 2) examined the resistance of disulfide-based reduction-triggered compounds to the major cellular enzymatic systems that maintain redox homeostasis and are capable of reducing disulfides, evaluated in a cell-free assay, to see if these compounds can be useful for selective enzyme-triggered release.
(§2) Assay conditions: A black 96-well plate with black bottom was charged with solutions of fluorophore-releasing reduction-triggered probes that are compounds of the invention (P1, P2) or that are not compounds of the invention and reveal the performance of prior art systems (X19) (50 μL; 40 μM in aq. TE buffer (pH 7.4) and 4 μL DMSO). Separately, master mixes (30 μL in aq. TE buffer (pH 7.4)) containing mixtures of the proteins human recombinant thioredoxin 1 (Trx1, 0.166-16.66 μM) or thioredoxin 2 (Trx2, 3.3 μM), or human recombinant glutaredoxin 1 (“Grx1”, 3.3 μM) or glutaredoxin 2 (Grx2, 3.3 μM) and/or oxidoreductases human recombinant thioredoxin reductase 1 (TrxR1, 0.07 μM), the thioredoxin reductase Secys498Cys mutant (TrxR1-U498C, 0.07 μM), thioredoxin reductase 2 (TrxR2, 0.07 μM) or human recombinant glutathione reductase (GR, 0.07 μM), and/or GSH (3.3 μM) were prepared. Note that TrxR1 (U498C) has decreased reducing power compared to TrxR1 due to the mutation of the key vicinal selenothiol/thiol into a vicinal dithiol, but it still reduces Trx1. […]
(§3) Data Representation: (F(t)-F^NADPH(t)) is the fluorescence intensity of the test solution at time t, from which is subtracted a background fluorescence level also at time t from a solution with NADPH (which itself is fluorescent, and is present in 10-fold higher concentration than the probe) and with the same protein mixture but without the probe. F^max(t) is the maximum possible fluorescence intensity value at time t, determined by incubation with TCEP (100 μM)) similarly as for the chemical reductant assay. (F(t)−F^NADPH(t))/F^max(t) thus gives the timecourse of fluorescence signal, as a fraction of the maximum possible fluorescence signal. […]

[2] = molecular target: T2, GR/GSH/Grx (glutaredoxin 1, Grx1) (Homo sapiens, UniProt P35754); experiment: Enzymatic activation assay: GR/GSH/Grx1; format: biochemical; conditions: full mixture NADPH/GR/GSH/Grx1
T2 sequence (P35754 1-106): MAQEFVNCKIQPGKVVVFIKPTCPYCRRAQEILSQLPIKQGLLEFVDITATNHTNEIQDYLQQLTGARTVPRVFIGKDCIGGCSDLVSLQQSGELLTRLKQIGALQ
From the text: as §1, §2, §3

[3] = tested on: HeLa, A549 and MEF cells; experiment: Cellular reduction assay (FIG. 3); format: cell-based, human, mouse; conditions: 100 μM, 1% vol DMSO, cells under ordinary conditions
Experimental: Assay Conditions: Cells were cultured under standard conditions (Gao, L. et al. Cell Chemical Biology 2021, 28, 1-14. https://doi.org/10.1016/j.chembiol.2020.11.007), left to adhere for 24 h, then compounds were added to 100 μM with 1% vol DMSO. Fluorescence timecourse measurements were acquired as in the chemoreductant assay, with all conditions in triplicates.
Data Representation: F(t)-F(0) is the fluorescence intensity signal increase as compared to time zero signal (fluorescence intensity immediately following compound addition, before probe activation can occur), in arbitrary units although with the same detection settings for all probes releasing the same cargo. This corresponds to reduction-triggered cargo release. “ctrf” indicates cells not treated with probes, as a negative control.

[4] = molecular target: T3, NADPH/TrxR1/Trx1 (Homo sapiens, UniProt P10599); experiment: Enzymatic activation assay: NADPH/TrxR1/Trx1 system; format: biochemical; conditions: NADPH/TrxR1 plus Trx1, 37° C., 6 h
T3 sequence (P10599 1-105): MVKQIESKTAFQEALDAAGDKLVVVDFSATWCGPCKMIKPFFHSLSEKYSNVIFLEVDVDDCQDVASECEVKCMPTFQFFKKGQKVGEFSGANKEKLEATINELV
From the text: as §1, §2, §3

[5] = molecular target: T4, thioredoxin 2 (Trx2) (Homo sapiens, UniProt Q99757); experiment: Enzymatic activation assay: NADPH/TrxR/Trx2 system; format: biochemical; conditions: NADPH/TrxR plus Trx2, 37° C., 6 h
T4 sequence (Q99757 60-166): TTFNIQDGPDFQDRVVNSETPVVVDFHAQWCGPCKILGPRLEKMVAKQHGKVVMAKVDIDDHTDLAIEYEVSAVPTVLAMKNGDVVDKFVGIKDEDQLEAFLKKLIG
From the text: as §1
(§4) Assay conditions: A black 96-well plate with black bottom was charged with solutions of fluorophore-releasing reduction-triggered probes that are compounds of the invention (P1, P2) or that are not compounds of the invention and reveal the performance of prior art systems (X19) (50 μL; 40 μM in aq. TE buffer (pH 7.4) and 4 μL DMSO). […]
as §3

[6] = molecular target: thioredoxin reductase 2 (TrxR2) (Homo sapiens, UniProt Q9NNW7); experiment: Enzymatic activation assay: NADPH/TrxR2 without Trx; format: biochemical; conditions: NADPH/TrxR2, no Trx added, 37° C., 6 h
From the text: as §1, §4, §3

Sequence of thioredoxin reductase 2 (TrxR2) (Q9NNW7 37-524): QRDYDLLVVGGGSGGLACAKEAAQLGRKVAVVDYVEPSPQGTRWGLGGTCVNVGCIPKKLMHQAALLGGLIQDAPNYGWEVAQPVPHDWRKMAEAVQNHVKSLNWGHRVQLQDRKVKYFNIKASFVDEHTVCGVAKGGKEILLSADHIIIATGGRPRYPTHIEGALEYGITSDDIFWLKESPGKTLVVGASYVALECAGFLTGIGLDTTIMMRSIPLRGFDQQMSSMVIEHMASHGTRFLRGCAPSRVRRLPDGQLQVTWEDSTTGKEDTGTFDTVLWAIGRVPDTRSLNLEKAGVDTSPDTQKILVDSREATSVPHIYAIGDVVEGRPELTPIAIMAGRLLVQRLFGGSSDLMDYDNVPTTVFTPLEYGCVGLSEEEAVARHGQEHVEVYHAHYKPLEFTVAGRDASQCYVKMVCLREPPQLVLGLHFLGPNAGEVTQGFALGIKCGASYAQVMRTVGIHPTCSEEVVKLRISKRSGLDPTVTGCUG

For “4-chloro-2-(6-chloro-4-oxo-3,4-dihydroquinazolin-2-yl)phenyl methyl(2-((2-(methyl amino)ethyl)disulfaneyl)ethyl)carbamate [Compound X19, reference compound]”, the “cargo release / processing by TrxR1” value [1] was “rapidly degraded”, the “cargo release / processing by GR/GSH/Grx1” value [2] was “enhanced reaction kinetics” and the “cargo release inside cells (fluorescence signal increase over time)” value [3] was “substantially release cargo inside cells cultured under ordinary conditions”. For the same compound, the “cargo release / processing by TrxR plus Trx1” value [4] was “enhanced reaction kinetics”.

In the case of `O=C(Oc1ccc(Cl)cc1-c1nc2ccc(Cl)cc2c(=O)[nH]1)N1CCC[C@@H]2CSSC[C@@H]21` (racemic) [Compound P2, 4-chloro-2-(6-chloro-4-oxo-3,4-dihydroquinazolin-2-yl)phenyl-(cis)-hexahydro-[1,2]dithiino[4,5-b]pyridine-1(2H)-carboxylate], the “cargo release / processing by TrxR1” value [1] is reported as “not processed”, the “cargo release / processing by TrxR plus Trx2” value [5] is reported as “processed when additional high levels of Trx1 and Trx2 are added” and the “cargo release / processing by GR/GSH/Grx1” value [2] is reported as “only processed by high levels of Grx1 and Grx2”. For the same compound, the “cargo release inside cells (fluorescence signal increase over time)” value [3] was “do not release cargo inside cells under ordinary conditions”, the “cargo release / processing by TrxR2” value [6] was “not processed” and the “cargo release / processing by TrxR plus Trx1” value [4] was “processed when additional high levels of Trx1 and Trx2 are added”.

In the case of `O=C(Oc1ccc(Cl)cc1-c1nc2ccc(Cl)cc2c(=O)[nH]1)N1CCC[C@@H]2CSSC[C@H]21` (racemic) [Compound P1, 4-chloro-2-(6-chloro-4-oxo-3,4-dihydroquinazolin-2-yl)phenyl-(trans)-hexahydro-[1,2]dithiino[4,5-b]pyridine-1(2H)-carboxylate], the “cargo release / processing by TrxR1” value [1] is reported as “not processed”, the “cargo release / processing by TrxR plus Trx2” value [5] is reported as “processed when additional high levels of Trx1 and Trx2 are added” and the “cargo release / processing by GR/GSH/Grx1” value [2] is reported as “only processed by high levels of Grx1 and Grx2”. The “cargo release inside cells (fluorescence signal increase over time)” value [3] was “do not release cargo inside cells under ordinary conditions”, the “cargo release / processing by TrxR2” value [6] was “not processed” and the “cargo release / processing by TrxR plus Trx1” value [4] was “processed when additional high levels of Trx1 and Trx2 are added”.
